In the oligonucleotide strings, read from the 5' end, every base follows the letter of its sugar. An asterisk marks phosphorothioate; unmarked linkages are phosphodiester. Other units and linkages are bracketed, terminal groups are in braces. A string of capitals states the bases alone. e = 2'-O-(2-methoxyethyl) (MOE); [5mC] = 5-methylcytosine; d = 2'-deoxy (DNA)

For the data set, the system named is HeLa cells. In words: Cell cycle assay in HeLa cells. Format: cell-based, human. Particulars: for % cells in cell cycle phase: G1 / % cells in cell cycle phase: G2/M / % cells in cell cycle phase: S / % cells in cell cycle phase: aneuploid / % cells in cell cycle phase: subG1: 48 hours after treatment, relative to untreated control (UTC=100). As for the experimental part: In some embodiments, HeLa cells were plated on collagen-coated 24-well plates at 50,000-60,000 cells per well, and allowed to attach to wells overnight. In some embodiments, HeLa cells were synchronized by double thymidine block (cells were washed three times with PBS, then grown in 10% FBS containing 2 mM thymidine; then 19 hours later, cells were washed three times in PBS, 10% FBS for 9 hours; cells were then incubated in 10% FBS, 2 mM thymidine for 15 hours; then washed three times with PBS, 10% FBS and samples were taken every two hours over a 16 hour period). A portion of each time sample was fixed with ethanol and treated with propidium iodide and subjected to FACs analysis for determination of the percentage of cells in each phase of the cell cycle. […] HeLa cells treated with 10 μM cisplatin or 100 ng/ml nocodazole were used as controls for G1-phase and late G2/M-phases, respectively. From the remaining portion of each of these time samples, total RNA was isolated and used to assess the expression of cell cycle marker mRNAs using the real-time RT-PCR methods and/or used to screen microarrays to assess the expression of miRNAs over the course of the cell cycle. It was observed that several miRNAs are expressed in a cell-cycle-dependent manner. Shown in Table 30 are the mRNA levels of the E2F1 transcription factor and topoisomerase 2A (Top2A), which vary over the course of the cell cycle and can be used for comparison to the experimental groups for the confirmation of cell cycle phase. Data are an average of three trials.
In some embodiments, HeLa cells were also treated with oligomeric compounds targeting miRNAs. […] The medium was removed from the plates. Each well was washed in 250 μl of PBS. […] Control cells received LIPOFECTIN™ only. […] After 24 hours (Table 31) or 48 hours (Table 32), cells were prepared for flow cytometry analysis to generate a cell cycle profile. The cell cycle profile was analyzed with the ModFit program (Verity Software House, Inc., Topsham Me.).
The random-mer ISIS 29848 (SEQ ID NO: 737) was used as a negative control, and ISIS 183891 (SEQ ID NO: 847), targeting kinesin-like 1/Eg5, was included as a positive control. Data are expressed as percentage of cells in each phase relative to the untreated control (UTC); values above 100 are considered to indicate a delay or arrest in that phase of the cell cycle. […] In some cases, the same oligomeric compound was tested in repeated experiments.
In accordance with the present invention, certain oligomeric compounds targeting miRNAs were selected for dose response studies. Using the cell cycle assay described above, the cell cycle profiles of HeLa or A549 cells treated with varying concentrations of oligomeric compounds of the present invention were assessed.
HeLa cells were treated with 25-, 50-, 100- or 150 nM of the oligomeric compounds ISIS
Numbers 327902 (SEQ ID NO: 320) and 328383 (SEQ ID NO: 492), both targeted against mir-192, and ISIS 327905 (SEQ ID NO: 323), targeting mir-205, and ISIS 328403 (SEQ ID NO: 512), targeting mir-106. Cells treated with increasing concentrations of oligomeric compounds were compared to untreated cells, to assess the dose-dependency of the observed delay or arrest. The random-mer ISIS 29848 was used as a negative control. Cells were prepared for flow cytometry 48-hours after oligonucleotide treatment, as described, supra.

The mark [1] stands for this setting: HeLa cells, 150 nM oligomeric compound, 24 hours, relative to untreated control (UTC = 100).
Where [2] appears, read: HeLa cells, 150 nM oligomeric compound.
Where [3] appears, read: HeLa cells, 150 nM, 48 hours, relative to untreated control.

On to “338666 (antisense TCACGTGGAGAGGAGTTAAA; all 2'-MOE, all phosphorothioate, methylation of C not given here) [compound 338666]”, for which, under setting [1], the “% cells aneuploid” value amounted to 102%, the “% cells in cell cycle phase G1” value worked out at 123%, the “% cells in cell cycle phase G2/M” value was 158% and the “% cells in cell cycle phase S” value is recorded as 63%. Besides, the “% cells in cell cycle phase subG1” value under setting [1] is listed as 235%. For the same substance, under setting [2], the “% cells in cell cycle phase: G1” value is given as 44%, the “% cells in cell cycle phase: G2/M” value is given as 217%, the “% cells in cell cycle phase: S” value is recorded as 136% and the “% cells in cell cycle phase: aneuploid” value was 125%. Also, the “% cells in cell cycle phase: subG1” value under setting [2] is listed as 1832%. For the same substance, under setting [3], the “% cells in cell cycle phase G1” value was 92%, the “% cells in cell cycle phase G2/M” value came out at 130%, the “% cells in cell cycle phase S” value turned out to be 98% and the “% cells in cell cycle phase aneuploid” value is 151%. The “% cells in cell cycle phase subG1” value under setting [3] worked out at 214%.
As for “328339 (eG*e[5mC]*eA*eG*e[5mC]*dG*d[5mC]*dA*dG*d[5mC]*dT*dG*dG*dT*d[5mC]*eT*e[5mC]*e[5mC]*e[5mC]*e[5mC]) [compound 328339]”, under setting [1], the “% cells aneuploid” value was 61%, the “% cells in cell cycle phase G1” value is reported as 77%, the “% cells in cell cycle phase G2/M” value worked out at 143% and the “% cells in cell cycle phase S” value is reported as 102%. Besides, the “% cells in cell cycle phase subG1” value under setting [1] was 235%. Moreover, under setting [2], the “% cells in cell cycle phase: G1” value amounted to 73%, the “% cells in cell cycle phase: G2/M” value came out at 123%, the “% cells in cell cycle phase: S” value came out at 153% and the “% cells in cell cycle phase: aneuploid” value is 92%. Besides, the “% cells in cell cycle phase: subG1” value under setting [2] came out at 678%.
Regarding “338690 (antisense TAGACAAAAACAGACTCTGA; all 2'-MOE, all phosphorothioate, methylation of C not given here) [compound 338690]”, under setting [1], the “% cells aneuploid” value stood at 194%, the “% cells in cell cycle phase G1” value worked out at 124%, the “% cells in cell cycle phase G2/M” value came out at 123% and the “% cells in cell cycle phase S” value turned out to be 78%. In addition, the “% cells in cell cycle phase subG1” value under setting [1] was 149%. Further, under setting [2], the “% cells in cell cycle phase: G1” value stood at 91%, the “% cells in cell cycle phase: G2/M” value was determined as 112%, the “% cells in cell cycle phase: S” value stood at 110% and the “% cells in cell cycle phase: aneuploid” value came to 190%. Under setting [2], the “% cells in cell cycle phase: subG1” value is recorded as 413%.
As for “ISIS 338678: SEQ ID NO: 505, targeted to the mir-205 pri-miRNA (CTGGTTGGGTATGAGACAGA; all 2'-MOE, all phosphorothioate, methylation of C not given here)”, the “phase of the cell cycle in which cells arrest or delay” value (from here on “phase of the cell cycle”) (HeLa, 150 nM, time point not stated) is on record as “G2/M-phase”.
Turning to “338809 (antisense CTGCTCCAGAGCCCGAGTCG; all 2'-MOE, all phosphorothioate, methylation of C not given here) [compound 338809]”, under setting [1], the “% cells aneuploid” value was determined as 210%, the “% cells in cell cycle phase G1” value came out at 159%, the “% cells in cell cycle phase G2/M” value stood at 69% and the “% cells in cell cycle phase S” value was found to be 82%. Besides, under setting [1], the “% cells in cell cycle phase subG1” value is reported as 106%. For the same substance, under setting [2], the “% cells in cell cycle phase: G1” value is recorded as 86%, the “% cells in cell cycle phase: G2/M” value worked out at 129%, the “% cells in cell cycle phase: S” value came to 110% and the “% cells in cell cycle phase: aneuploid” value is on record as 157%. Under setting [2], the “% cells in cell cycle phase: subG1” value stood at 345%.
In the case of “328676 (eA*e[5mC]*e[5mC]*eT*e[5mC]*d[5mC]*d[5mC]*dA*dG*d[5mC]*d[5mC]*dA*dA*dT*d[5mC]*e[5mC]*eA*eT*eG*eT; antisense) [compound 328676]”, under setting [1], the “% cells aneuploid” value was 169%, the “% cells in cell cycle phase G1” value is given as 99%, the “% cells in cell cycle phase G2/M” value worked out at 134% and the “% cells in cell cycle phase S” value is on record as 86%. Moreover, the “% cells in cell cycle phase subG1” value under setting [1] is given as 139%. Also, under setting [2], the “% cells in cell cycle phase: G1” value came out at 86%, the “% cells in cell cycle phase: G2/M” value is 118%, the “% cells in cell cycle phase: S” value was 118% and the “% cells in cell cycle phase: aneuploid” value was 172%. Moreover, the “% cells in cell cycle phase: subG1” value under setting [2] was 366%.
As for “ISIS 328759: SEQ ID NO: 668, targeted to mir-216 (eG*eA*eG*eG*eG*dA*dT*dT*dG*dT*dA*dT*dG*dA*dA*e[5mC]*eA*eT*e[5mC]*eT)”, the “chromosome missegregation (subG1 or aneuploid DNA content)” value (HeLa, 150 nM, 24-hour and 48-hour timepoints) is reported as “induce chromosome missegregation events”. The “phase of the cell cycle” value by setting is: (HeLa, 150 nM, 48 hours) “delay or arrest resulted in the G2/M-phase”; (HeLa, 150 nM, both 24 and 48 hours) “G2/M-phase”.
For “328727 (antisense e[5mC]*eT*eG*e[5mC]*eT*d[5mC]*d[5mC]*dA*dG*dA*dG*d[5mC]*d[5mC]*d[5mC]*dG*eA*eG*eT*e[5mC]*eG) [compound 328727]”, under setting [1], the “% cells aneuploid” value was determined as 161%, the “% cells in cell cycle phase G1” value was 133%, the “% cells in cell cycle phase G2/M” value was determined as 105% and the “% cells in cell cycle phase S” value amounted to 81%. The “% cells in cell cycle phase subG1” value under setting [1] was 245%. For the same substance, under setting [2], the “% cells in cell cycle phase: G1” value was 68%, the “% cells in cell cycle phase: G2/M” value is on record as 124%, the “% cells in cell cycle phase: S” value was 152% and the “% cells in cell cycle phase: aneuploid” value amounted to 140%. The “% cells in cell cycle phase: subG1” value under setting [2] amounted to 846%.
As for “GGTACAATCAACGGTCGATGGT (anti-miR; chemistry not fully specified) [ISIS 327934, uniform 2′-MOE PS; targets mir-213]”, for the setting “HeLa, 150 nM, 48 hours”, the “phase of the cell cycle” value is “G2/M- and S-phases”.
In the case of “345373 (AGCCTATCCTGGATTACTTGAA; sugars from the 5' end e5 d10 e7, all phosphorothioate, methylation of C not given here) [compound 345373]”, under setting [1], the “% cells aneuploid” value was determined as 68%, the “% cells in cell cycle phase G1” value was found to be 66%, the “% cells in cell cycle phase G2/M” value was 176% and the “% cells in cell cycle phase S” value turned out to be 94%. Further, the “% cells in cell cycle phase subG1” value under setting [1] is 196%. Also, under setting [2], the “% cells in cell cycle phase: G1” value amounted to 75%, the “% cells in cell cycle phase: G2/M” value amounted to 145%, the “% cells in cell cycle phase: S” value is given as 132% and the “% cells in cell cycle phase: aneuploid” value came out at 119%. In addition, under setting [2], the “% cells in cell cycle phase: subG1” value was determined as 116%.
Turning to “CAGACTCCGGTGGAATGAAGGA (anti-miR; chemistry not fully specified) [ISIS 327905, uniform 2′-MOE PS; targets mir-205]”, the “phase of the cell cycle” value (HeLa, 150 nM, 48 hours) is recorded as “S-phase”.
Consider “AGCCTATCCTGGATTACTTGAA (chemistry not fully specified) [ISIS 345373]”, for which the “phase of the cell cycle” value is “G2/M-phase” (HeLa, 150 nM, 24 hours) and “S-phase” (HeLa, 150 nM, 48 hours).
Turning to “338741 (antisense GCTTCACAATTAGACCATCC; all 2'-MOE, all phosphorothioate, methylation of C not given here) [compound 338741]”, under setting [1], the “% cells aneuploid” value was 166%, the “% cells in cell cycle phase G1” value is reported as 141%, the “% cells in cell cycle phase G2/M” value came to 112% and the “% cells in cell cycle phase S” value is reported as 73%. Moreover, the “% cells in cell cycle phase subG1” value under setting [1] is reported as 157%. Also, under setting [2], the “% cells in cell cycle phase: G1” value was determined as 100%, the “% cells in cell cycle phase: G2/M” value stood at 99%, the “% cells in cell cycle phase: S” value came to 101% and the “% cells in cell cycle phase: aneuploid” value was 170%. In addition, the “% cells in cell cycle phase: subG1” value under setting [2] is listed as 185%.

The record behind these values is patent US8178506B2, “Oligomeric compounds and compositions for use in modulation of small non-coding RNAs” (Regulus Therapeutics Inc., priority 2003, dated 2012).
